Reference: patent US20240270744A1 (Hoffmann-La Roche Inc., priority 2021, published 2024)
Read-outs that look alike come from different tables or passages of the source.

Key:
[1] = target: human GABAA α2β2γ1 receptor (Homo sapiens (Human), UniProt P47869+Q8N1C3); assay: Radioligand binding assay, competition for [3H]RO7239181, γ1-containing GABAA subtypes; conditions: for LogSel: Log of the γ2/γ1 Ki ratio
Procedure: The affinity of compounds at GABAA γ1 subunit-containing receptors was measured by competition for [^3H]RO7239181 (67.3 Ci/mmol; Roche) binding to membranes from HEK293F cells (ThermoFisher R79007) expressing human (transiently transfected) receptors of composition α5β2γ1, α2β2γ1, α1β2γ1.
Harvested pellets from HEK293F cells expressing the different GABAA receptor subtypes were resuspended in Mannitol Buffer pH 7.2-7.4 (Mannitol 0.29 M, Triethylamine 10 mM, Acetic acid 10 mM, EDTA 1 mM plus protease inhibitors (20 tablets Complete, Roche Diagnostics Cat. No. 05 056 489 001 per liter)), washed two times and then resuspended at 1:10 to 1:15 dilution in the same buffer. Cell disruption was performed by stirring the suspension in a Parr vessel #4637 at 435 psi for 15 minutes, and then the suspensions were centrifuged at 1000×g for 15 minutes at 4° C. (Beckman Avanti J-HC: rotor JS-4.2). The supernatant (S1) was transferred in a 21 Schott flask and the pellet (P1) was resuspended with Mannitol Buffer up to 175 ml. The resuspended pellet was transferred into a 250 ml Corning centrifugal beaker and centrifuged at 1500×g for 10 minutes at 4° C. (Beckman Avanti J-HC: rotor JS-4.2). The supernatant (S1) was then transferred in the 21 Schott flask and the pellet was discarded. The supernatants (S1) were centrifuged in 500 ml Beckman polypropylene centrifugal beaker at 15′000×g for 30 minutes at 4° C. (Beckman Avanti J-20 XP; rotor JLA-10.500). The pellet (P2) was resuspended with Mannitol Buffer 1:1 and frozen at −80° C. The supernatant (S2) was centrifuged in 100 ml Beckman polypropylene centrifugal tubes at 48000×g for 50 minutes at 4° C. (Beckman Avanti J-20 XP; rotor JA-18). The supernatant (S3) was discarded and the pellet (P3) was resuspended with 1:1 Mannitol Buffer. The P2 and P3 protein concentration was determined with the BIORAD Standard assay method with bovine serum albumin as standard and measured on the NANO-Drop 1000. The membrane suspension was aliquots (500 μl per tube) and stored at −80° C. until required.
Membrane homogenates were resuspended and polytronised (Polytron PT1200E Kinematica AG) in Potassium Phosphate 10 mM, KCl 100 mM binding buffer at pH 7.4 to a final assay concentration determined with a previous experiment.
Assays were incubated to equilibrium for 1 hour at 4° C. and then, membranes were filtered onto unifilter (96-well white microplate with bonded GF/C filters preincubated 20-50 minutes in 0.3% Polyethylenimine) with a Filtermate 196 harvester (Packard BioScience) and washed 4 times with cold Potassium Phosphate 10 mM pH 7.4, KCl 100 mM binding buffer. After anhydrousing, filter-retained radioactivity was detected by liquid scintillation counting. Ki values were calculated using Excel-Fit (Microsoft) and are the means of two determinations.

[2] = target: human GABAA α1β3γ2 receptor (Homo sapiens (Human), UniProt P14867+P18507); assay: Radioligand binding assay, competition for [3H]Flumazenil, γ2-containing GABAA subtypes; conditions: read-out: Ki h-GABAA α1β3γ2
Procedure: The affinity of compounds at GABAA γ2 subunit-containing receptors was measured by competition for [^3H]Flumazenil (81.1 Ci/mmol; Roche) binding to HEK293F cells expressing human (transiently transfected) receptors of composition α1β3γ2.
Harvested pellets from HEK293F cells expressing the different GABAA γ2 receptor subtypes were resuspended in Mannitol Buffer pH 7.2-7.4 and processed as described above for the cells expressing the GABAA γ1 subunit-containing receptors.
Assays were incubated to equilibrium for 1 hour at 4° C. and harvested onto GF/C uni-filters (Packard) by filtration using a Packard harvester and washing with ice-cold wash buffer (50 mM Tris; pH 7.5). After anhydrousing, filter-retained radioactivity was detected by liquid scintillation counting. Ki values were calculated using Excel-Fit (Microsoft) and are the means of two determinations.

h-GABA-A α2β2γ1 = h-GABA-A α2β2γ1 (Homo sapiens (Human), UniProt P47869+Q8N1C3); assay: Two-electrode voltage clamp electrophysiology in Xenopus oocytes expressing GABAA receptors; assay type: cell-based; conditions: Table 2; for Efficacy (GABA) %: % modulation of GABA EC20 = 100*(Fold increase-1), compound at 30-fold Ki; for Fold increase h-GABA-A α2β2γ1 oocyte @ 30-fold Ki: GABA EC20, test compound at approx. 30-fold its Ki α2β2γ1, Xenopus oocytes, -80 mV
Procedure: Xenopus laevis oocytes at maturation stages V-VI were used for the expression of cloned mRNA encoding GABAA receptor subunits. Oocytes ready for RNA micro-injection were bought from Ecocyte, Castrop-Rauxel, Germany and stored in modified Barth's medium (composition in mM: NaCl 88, KCl 1, NaHCO3 2.4, HEPES 10, MgSO4 0.82, CaNO3 0.33, CaCl2 0.33, pH=7.5) at 20° C. until the experiment.
Oocytes were plated in 96-well plates for microinjection using the Roboinject automated instrument (MultiChannelSystems, Reutlingen, Germany). Approximately 50 nL of an aqueous solution containing the RNA transcripts for the subunits of the desired GABAA receptor subtype was injected into each oocyte. […] Oocytes were kept in modified Barth's medium (composition in mM: NaCl 88, KCl 1, NaHCO3 […], HEPES 10, MgSO4 0.82, CaNO3 0.33, CaCl2 0.33, pH=7.5) at 20° C. until the experiment.
Electrophysiological experiments were performed using the Roboocyte instrument (MultiChannelSystems, Reutlingen, Germany) on days 3 to 5 after the micro-injection of mRNA. During the experiment the oocytes were constantly superfused by a solution containing (in mM) NaCl 90, KCl 1, HEPES 5, MgCl2 1, CaCl2 1 (pH 7.4). Oocytes were impaled by two glass microelectrodes (resistance: […]) which were filled with a solution containing KCl 1M+K-acetate 1.5 M and voltage-clamped to −80 mV. The recordings were performed at room temperature using the Roboocyte two-electrode voltage clamp system (Multichannelsystem). After an initial equilibration period of 1.5 min GABA was added for 1.5 min at a concentration evoking approximately 20% of a maximal current response (EC20). After another rest interval of 2.5 min GABA was again added evoking a response of similar amplitude and shape. […] Current traces were recorded at a digitization rate of 10 Hz during and shortly before and after the GABA application.
Each compound and concentration was tested on at least 3 oocytes. Different oocytes were used for different compound concentrations.
For the analysis, the digitized current traces of the first and second GABA response were superimposed and, if necessary, rescaled to equal maximal amplitudes. The ratio between the two responses during the time interval of test compound application was calculated point by point. The extremum of the resulting “ratio trace” was taken as the efficacy (“Fold increase”) of the compound expressed as “% modulation of GABA EC20” (100*(Fold increase−1)).

[3] = Ki h-GABAA α2β2γ1, Table 1, [3H]RO7239181 displacement, membranes from HEK293F cells, mean of two determinations
[4] = Ki h-GABAA α2β2γ1, Table 2, [3H]RO7239181 displacement
[5] = Table 1, Ki α1β3γ2 (nM)/Ki α2β2γ1 (nM)
[6] = Table 1, [3H]Flumazenil displacement, HEK293F cells, mean of two determinations

## Cc1nnc2n1-c1cnc(Cl)c(Cl)c1C(c1c(F)cccc1F)=N[C@H]2C [Example 1, (7S)-11,12-dichloro-9-(2,6-difluorophenyl)-3,7-dimethyl-2,4,5,8,13-pentazatricyclo[8.4.0.02,6]tetradeca-1(10),3,5,8,11,13-hexaene]
[1]; [3]
  Ki: 0.0317 µM
[1]; [4]
  Ki: 0.0317 µM
[1]; [5]
  γ2/γ1 Selectivity Ratio: 34
[1]; Table 1
  LogSel: 1.53
[2]; [6]
  Ki: 1.09 µM
h-GABA-A α2β2γ1
  Efficacy (GABA) %: 55%
  Fold increase h-GABA-A α2β2γ1 oocyte @ 30-fold Ki: 1.55

## Cc1nnc2n1-c1cnc(C3CC3)c(Cl)c1C(c1c(F)cccc1F)=N[C@H]2C [Example 2, (7S)-11-chloro-12-cyclopropyl-9-(2,6-difluorophenyl)-3,7-dimethyl-2,4,5,8,13-pentazatricyclo[8.4.0.02,6]tetradeca-1(10),3,5,8,11,13-hexaene]
[1]
  Ki: 0.143 µM
[1]; [5]
  γ2/γ1 Selectivity Ratio: 23
[1]; Table 1
  LogSel: 1.36
[1]; read-out: Ki h-GABAA α2β2γ1, Table 2, [3H]RO7239181 displacement
  Ki: 0.143 µM
[2]; [6]
  Ki: 3.29 µM
h-GABA-A α2β2γ1
  Efficacy (GABA) %: 162%
  Fold increase h-GABA-A α2β2γ1 oocyte @ 30-fold Ki: 2.62

## Cc1ncc2c(c1Cl)C(c1c(F)cccc1F)=N[C@@H](C)c1nnc(C)n1-2 [Example 3, (7S)-11-chloro-9-(2,6-difluorophenyl)-3,7,12-trimethyl-2,4,5,8,13-pentazatricyclo[8.4.0.02,6]tetradeca-1(10),3,5,8,11,13-hexaene]
[1]; [3]
  Ki: 0.0516 µM
[1]; [4]
  Ki: 0.0516 µM
[1]; [5]
  γ2/γ1 Selectivity Ratio: 35
[1]; Table 1
  LogSel: 1.54
[2]; [6]
  Ki: 1.79 µM
h-GABA-A α2β2γ1
  Efficacy (GABA) %: 66%
  Fold increase h-GABA-A α2β2γ1 oocyte @ 30-fold Ki: 1.66

## Cc1nnc2n1-c1cnc(C(F)(F)F)c(Cl)c1C(c1c(F)cccc1F)=N[C@H]2C [Example 4, (7S)-11-chloro-9-(2,6-difluorophenyl)-3,7-dimethyl-12-(trifluoromethyl)-2,4,5,8,13-pentazatricyclo[8.4.0.02,6]tetradeca-1(10),3,5,8,11,13-hexaene]
[1]; [3]
  Ki: 0.0643 µM
[1]; [4]
  Ki: 0.0643 µM
[1]; Ki h-GABAA α2β2γ1, Table 3, reference compounds comparison
  Ki: 0.0643 µM
[1]; [5]
  γ2/γ1 Selectivity Ratio: 113
[1]; Table 1
  LogSel: 2.05
[1]; Table 3, Ki α1β3γ2/Ki α2β2γ1
  γ2/γ1 Selectivity Ratio: 113
[1]; Table 3
  LogSel: 2.1
[2]; [6]
  Ki: 7.27 µM
[2]; Table 3, reference compounds comparison
  Ki: 7.27 µM
h-GABA-A α2β2γ1
  Efficacy (GABA) %: 116%
  Fold increase h-GABA-A α2β2γ1 oocyte @ 30-fold Ki: 2.16

## Cc1nc2n(n1)-c1cnc(C(F)(F)F)c(Cl)c1C(c1c(F)cccc1F)=N[C@H]2C [Example 5]
[1]; [5]
  γ2/γ1 Selectivity Ratio: 118
[1]; Table 1
  LogSel: 2.07
[1]; Table 1, [3H]RO7239181 displacement, membranes from HEK293F cells, mean of two determinations, read-out: Ki h-GABAA α2β2γ1
  Ki: 0.04 µM
[1]; Table 2, [3H]RO7239181 displacement, read-out: Ki h-GABAA α2β2γ1
  Ki: 0.04 µM
[2]; [6]
  Ki: 4.74 µM
h-GABA-A α2β2γ1
  Efficacy (GABA) %: 84%
  Fold increase h-GABA-A α2β2γ1 oocyte @ 30-fold Ki: 1.84

## C[C@@H]1N=C(c2c(F)cccc2F)c2c(cnc(C(F)(F)F)c2Cl)-n2nc(C(=O)N3CCC3)nc21 [Example 6, azetidin-1-yl-[(7S)-11-chloro-9-(2,6-difluorophenyl)-7-methyl-12-(trifluoromethyl)-2,3,5,8,13-pentazatricyclo[8.4.0.02,6]tetradeca-1(10),3,5,8,11,13-hexaen-4-yl]methanone]
[1]; [3]
  Ki: 0.0452 µM
[1]; [4]
  Ki: 0.0452 µM
[1]; [5]
  γ2/γ1 Selectivity Ratio: 227
[1]; Table 1
  LogSel: 2.36
[2]; [6]
  Ki: 10.2 µM
h-GABA-A α2β2γ1
  Efficacy (GABA) %: 91%
  Fold increase h-GABA-A α2β2γ1 oocyte @ 30-fold Ki: 1.91

## C[C@@H]1N=C(c2c(F)cccc2F)c2c(cnc(C(F)(F)F)c2Cl)-n2nc(C(=O)N3CC(F)C3)nc21 [Example 7, [(7S)-11-chloro-9-(2,6-difluorophenyl)-7-methyl-12-(trifluoromethyl)-2,3,5,8,13-pentazatricyclo[8.4.0.02,6]tetradeca-1(10),3,5,8,11,13-hexaen-4-yl]-(3-fluoroazetidin-1-yl)methanone]
[1]; [3]
  Ki: 0.0202 µM
[1]; [4]
  Ki: 0.0202 µM
[1]; [5]
  γ2/γ1 Selectivity Ratio: 253
[1]; Table 1
  LogSel: 2.40
[2]; [6]
  Ki: 5.1 µM
h-GABA-A α2β2γ1
  Efficacy (GABA) %: 85%
  Fold increase h-GABA-A α2β2γ1 oocyte @ 30-fold Ki: 1.85

## C[C@@H]1N=C(c2c(F)cccc2F)c2c(cnc(C(F)(F)F)c2Cl)-n2nc(C(=O)N3CC(O)C3)nc21 [Example 8, [(7S)-11-chloro-9-(2,6-difluorophenyl)-7-methyl-12-(trifluoromethyl)-2,3,5,8,13-pentazatricyclo[8.4.0.02,6]tetradeca-1(10),3,5,8,11,13-hexaen-4-yl]-(3-hydroxyazetidin-1-yl)methanone]
[1]; [3]
  Ki: 0.0146 µM
[1]; [4]
  Ki: 0.0146 µM
[1]; [5]
  γ2/γ1 Selectivity Ratio: 255
[1]; Table 1
  LogSel: 2.41
[2]; [6]
  Ki: 3.72 µM
h-GABA-A α2β2γ1
  Efficacy (GABA) %: 114%
  Fold increase h-GABA-A α2β2γ1 oocyte @ 30-fold Ki: 2.14

## COC1CN(C(=O)c2nc3n(n2)-c2cnc(C(F)(F)F)c(Cl)c2C(c2c(F)cccc2F)=N[C@H]3C)C1 [Example 9, [(7S)-11-chloro-9-(2,6-difluorophenyl)-7-methyl-12-(trifluoromethyl)-2,3,5,8,13-pentazatricyclo[8.4.0.02,6]tetradeca-1(10),3,5,8,11,13-hexaen-4-yl]-(3-methoxyazetidin-1-yl)methanone]
[1]; [3]
  Ki: 0.0199 µM
[1]; [4]
  Ki: 0.0199 µM
[1]; [5]
  γ2/γ1 Selectivity Ratio: 170
[1]; Table 1
  LogSel: 2.23
[2]; [6]
  Ki: 3.39 µM
h-GABA-A α2β2γ1
  Efficacy (GABA) %: 87%
  Fold increase h-GABA-A α2β2γ1 oocyte @ 30-fold Ki: 1.87
